In EP4722207A1, “OXOISOINDOLINYL-SUBSTITUTED TETRAHYDROPYRIMIDINEDIONE DERIVATIVE AND USE THEREOF” (Gluetacs Therapeutics (Shanghai) Co., Ltd., priority 2023, dated 2024):

Columns and labels:
[1] = tested on: H2228; experiment: Cell viability assay (CellTiter-Meiluncell Luminescent), tumor cell proliferation, H2228; settings: Homo sapiens, NCI-H2228, 96 h; for inhibition at 0.01 µM: read-out: Inhibition Rate at 10 nM (%); for inhibition at 0.5 µM: read-out: Inhibition Rate at 500 nM (%)
Procedure: (§1) The tumor cells used herein were cultured in a cell culture medium listed in table 2 at 37°C in an incubator with 5% CO2. Prior to experimentation, all cell lines used were correctly identified by STR profiling, and tested negative for mycoplasma contamination using a mycoplasma detection kit through routine screenings.
(§2) On the following day, the test compounds of the present disclosure were subjected to serial dilution. […] Subsequently, 0.5 µL of the test compound dilution was transferred into the 96-well plate containing the cells, with each well containing 100 µL of cell culture medium. […] Into the 96-well plate, the diluted test compounds and corresponding detection reagents were added, resulting in final test compound concentrations of 500 nM and 10 nM, respectively. The experimental procedure is described below using the diluted 2 µM test compound as an example.
(§3) After the cells were treated with the compounds of the present disclosure for a specified period, the cell viability assay reagent was added to the culture medium according to the kit's instructions to determine cell viability. […] All controls were treated using the same procedure as the compounds of the present disclosure. The growth inhibition curves for the compounds of the present disclosure were plotted using Prism GraphPad software, and the IC50 values were calculated therefrom.

[2] = molecular target: T1, WEE1 (Homo sapiens, UniProt P30291+Q96SW2); experiment: Western-blot assay, substrate protein degradation in hPBMCs: WEE1; format: cell-based; settings: 24 hours of compound treatment, 50 nM and 500 nM
T1 construct: effects of the compounds of the present disclosure on the expression of target proteins in cells; endogenous in cells; host or cells: human PBMCs (hPBMCs)
T1 sequence (P30291 whole entry): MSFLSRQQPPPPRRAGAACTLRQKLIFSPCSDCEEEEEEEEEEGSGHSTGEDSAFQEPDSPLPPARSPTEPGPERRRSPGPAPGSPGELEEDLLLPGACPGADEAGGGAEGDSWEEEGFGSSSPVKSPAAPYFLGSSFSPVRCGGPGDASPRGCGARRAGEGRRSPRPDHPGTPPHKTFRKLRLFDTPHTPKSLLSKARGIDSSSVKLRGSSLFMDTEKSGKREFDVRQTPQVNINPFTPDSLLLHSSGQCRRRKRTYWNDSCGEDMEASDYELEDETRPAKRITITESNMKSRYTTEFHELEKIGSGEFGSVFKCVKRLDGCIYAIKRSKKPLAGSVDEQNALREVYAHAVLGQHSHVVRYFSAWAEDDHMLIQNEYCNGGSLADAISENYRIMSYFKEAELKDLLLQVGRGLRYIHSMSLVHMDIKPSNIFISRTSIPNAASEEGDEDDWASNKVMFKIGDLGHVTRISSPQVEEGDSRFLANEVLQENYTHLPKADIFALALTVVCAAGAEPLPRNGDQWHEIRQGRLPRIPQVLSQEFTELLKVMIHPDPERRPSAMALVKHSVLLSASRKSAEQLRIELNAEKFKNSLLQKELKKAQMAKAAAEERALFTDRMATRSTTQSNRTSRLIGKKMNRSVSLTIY
T1 sequence (Q96SW2 whole entry): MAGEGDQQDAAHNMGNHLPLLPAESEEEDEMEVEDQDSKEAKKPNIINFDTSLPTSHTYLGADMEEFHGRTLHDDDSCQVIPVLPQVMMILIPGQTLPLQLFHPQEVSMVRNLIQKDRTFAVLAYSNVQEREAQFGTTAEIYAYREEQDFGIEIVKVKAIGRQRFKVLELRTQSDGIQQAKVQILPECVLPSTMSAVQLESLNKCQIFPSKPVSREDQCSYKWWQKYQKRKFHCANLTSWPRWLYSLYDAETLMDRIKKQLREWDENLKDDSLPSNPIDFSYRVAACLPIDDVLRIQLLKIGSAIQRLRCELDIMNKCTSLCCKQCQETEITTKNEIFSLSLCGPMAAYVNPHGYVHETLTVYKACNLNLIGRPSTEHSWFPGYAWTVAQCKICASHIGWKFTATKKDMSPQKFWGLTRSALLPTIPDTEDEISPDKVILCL
T1 sequence (Q16531 whole entry partner): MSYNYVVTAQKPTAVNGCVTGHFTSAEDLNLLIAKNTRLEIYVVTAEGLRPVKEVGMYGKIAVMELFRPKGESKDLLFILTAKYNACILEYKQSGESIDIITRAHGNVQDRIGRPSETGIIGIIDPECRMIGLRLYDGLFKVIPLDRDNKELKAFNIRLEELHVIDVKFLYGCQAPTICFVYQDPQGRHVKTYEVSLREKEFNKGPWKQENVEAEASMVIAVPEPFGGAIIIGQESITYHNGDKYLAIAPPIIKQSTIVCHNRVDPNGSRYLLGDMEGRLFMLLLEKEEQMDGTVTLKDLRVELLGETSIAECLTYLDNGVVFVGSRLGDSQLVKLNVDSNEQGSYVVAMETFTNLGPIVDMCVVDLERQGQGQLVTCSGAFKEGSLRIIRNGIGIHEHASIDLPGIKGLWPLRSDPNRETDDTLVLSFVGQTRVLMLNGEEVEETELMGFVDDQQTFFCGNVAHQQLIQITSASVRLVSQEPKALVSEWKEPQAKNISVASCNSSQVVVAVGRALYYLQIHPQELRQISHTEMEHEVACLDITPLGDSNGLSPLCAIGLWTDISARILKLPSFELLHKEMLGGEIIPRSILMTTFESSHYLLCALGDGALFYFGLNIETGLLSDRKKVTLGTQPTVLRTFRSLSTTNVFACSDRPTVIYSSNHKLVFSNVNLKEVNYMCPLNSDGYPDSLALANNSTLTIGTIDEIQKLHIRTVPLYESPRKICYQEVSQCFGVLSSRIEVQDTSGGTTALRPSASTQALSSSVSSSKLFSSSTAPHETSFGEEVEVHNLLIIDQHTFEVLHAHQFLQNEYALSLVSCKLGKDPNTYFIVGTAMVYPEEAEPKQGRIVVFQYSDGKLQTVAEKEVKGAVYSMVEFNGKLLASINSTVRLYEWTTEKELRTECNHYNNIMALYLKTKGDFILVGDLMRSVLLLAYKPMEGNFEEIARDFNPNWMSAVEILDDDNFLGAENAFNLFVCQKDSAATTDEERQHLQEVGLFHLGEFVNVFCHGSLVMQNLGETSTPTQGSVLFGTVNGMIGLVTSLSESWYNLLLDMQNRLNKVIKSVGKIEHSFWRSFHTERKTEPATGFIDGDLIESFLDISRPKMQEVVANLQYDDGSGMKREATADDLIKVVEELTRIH

[3] = molecular target: T2, CK1α (Homo sapiens, UniProt P48729+Q96SW2); experiment: Western-blot assay, substrate protein degradation in hPBMCs: CK1α; format: cell-based; settings: 24 hours of compound treatment, 50 nM and 500 nM
T2 construct: effects of the compounds of the present disclosure on the expression of target proteins in cells; endogenous in cells; host or cells: human PBMCs (hPBMCs)
T2 sequence (P48729 whole entry): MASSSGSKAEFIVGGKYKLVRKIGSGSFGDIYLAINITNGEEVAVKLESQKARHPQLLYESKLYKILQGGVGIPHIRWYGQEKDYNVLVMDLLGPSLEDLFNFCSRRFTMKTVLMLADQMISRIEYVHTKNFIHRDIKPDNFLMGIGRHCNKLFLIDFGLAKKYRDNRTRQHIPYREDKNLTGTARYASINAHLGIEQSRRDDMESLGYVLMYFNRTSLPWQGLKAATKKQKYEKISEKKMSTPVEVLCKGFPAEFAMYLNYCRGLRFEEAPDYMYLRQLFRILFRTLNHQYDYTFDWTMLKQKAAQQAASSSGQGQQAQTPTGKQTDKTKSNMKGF
T2 sequence (Q96SW2 whole entry): as the sequence (Q96SW2 whole entry) above
T2 sequence (Q16531 whole entry partner): as the sequence (Q16531 whole entry partner) above

[4] = molecular target: T3, IKZF2 (Homo sapiens, UniProt Q96SW2+Q9UKS7); experiment: Western-blot assay, substrate protein degradation in hPBMCs: IKZF2; format: cell-based; settings: 24 hours of compound treatment, 50 nM and 500 nM
T3 construct: effects of the compounds of the present disclosure on the expression of target proteins in cells; endogenous in cells; host or cells: human PBMCs (hPBMCs)
T3 sequence (Q9UKS7 whole entry): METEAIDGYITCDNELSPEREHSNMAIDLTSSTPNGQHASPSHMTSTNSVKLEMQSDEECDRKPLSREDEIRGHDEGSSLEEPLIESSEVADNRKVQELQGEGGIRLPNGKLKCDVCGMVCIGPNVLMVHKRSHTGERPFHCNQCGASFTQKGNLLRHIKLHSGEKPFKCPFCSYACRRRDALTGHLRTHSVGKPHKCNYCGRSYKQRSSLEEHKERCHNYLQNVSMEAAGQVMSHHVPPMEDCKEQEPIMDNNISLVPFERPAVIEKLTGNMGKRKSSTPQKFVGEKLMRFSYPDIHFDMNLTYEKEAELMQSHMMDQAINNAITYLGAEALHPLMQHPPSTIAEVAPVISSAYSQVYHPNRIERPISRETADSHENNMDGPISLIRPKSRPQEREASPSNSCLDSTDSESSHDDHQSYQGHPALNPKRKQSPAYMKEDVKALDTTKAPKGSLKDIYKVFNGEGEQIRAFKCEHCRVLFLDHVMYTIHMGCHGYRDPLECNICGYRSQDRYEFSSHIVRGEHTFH
T3 sequence (Q96SW2 whole entry): as the sequence (Q96SW2 whole entry) above
T3 sequence (Q16531 whole entry partner): as the sequence (Q16531 whole entry partner) above

[5] = tested on: H292; experiment: Cell viability assay (CellTiter-Meiluncell Luminescent), tumor cell proliferation, H292; settings: Homo sapiens, NCI-H292, 96 h; for inhibition at 0.01 µM: read-out: Inhibition Rate at 10 nM (%); for inhibition at 0.5 µM: read-out: Inhibition Rate at 500 nM (%)
[6] = tested on: MDA-MB-231; experiment: Cell viability assay (CellTiter-Meiluncell Luminescent), tumor cell proliferation, MDA-MB-231; settings: Homo sapiens, MDA-MB-231, 96 h; for inhibition at 0.01 µM: read-out: Inhibition Rate at 10 nM (%); for inhibition at 0.5 µM: read-out: Inhibition Rate at 500 nM (%)
[7] = molecular target: T4, GSPT1 (Homo sapiens, UniProt P15170+Q96SW2); experiment: Western-blot assay, substrate protein degradation in hPBMCs: GSPT1; format: cell-based; settings: 24 hours of compound treatment, 50 nM and 500 nM
T4 construct: effects of the compounds of the present disclosure on the expression of target proteins in cells; endogenous in cells; host or cells: human PBMCs (hPBMCs)

[8] = molecular target: T5, IKZF3 (Homo sapiens, UniProt Q96SW2+Q9UKT9); experiment: Western-blot assay, substrate protein degradation in hPBMCs: IKZF3; format: cell-based; settings: 24 hours of compound treatment, 50 nM and 500 nM
T5 construct: effects of the compounds of the present disclosure on the expression of target proteins in cells; endogenous in cells; host or cells: human PBMCs (hPBMCs)
T5 sequence (Q9UKT9 whole entry): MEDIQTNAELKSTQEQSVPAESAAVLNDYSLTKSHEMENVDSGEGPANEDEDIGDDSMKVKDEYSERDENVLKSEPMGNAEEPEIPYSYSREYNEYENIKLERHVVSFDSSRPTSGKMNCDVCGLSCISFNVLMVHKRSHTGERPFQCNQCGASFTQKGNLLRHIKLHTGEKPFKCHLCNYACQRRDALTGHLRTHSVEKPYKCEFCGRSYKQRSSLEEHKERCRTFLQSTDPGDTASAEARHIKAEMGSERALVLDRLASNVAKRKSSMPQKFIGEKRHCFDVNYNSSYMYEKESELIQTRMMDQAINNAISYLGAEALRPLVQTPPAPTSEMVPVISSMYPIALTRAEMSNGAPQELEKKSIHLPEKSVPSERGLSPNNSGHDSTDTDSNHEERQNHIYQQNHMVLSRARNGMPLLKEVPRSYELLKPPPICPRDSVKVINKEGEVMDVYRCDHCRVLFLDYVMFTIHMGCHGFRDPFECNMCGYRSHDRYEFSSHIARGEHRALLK
T5 sequence (Q96SW2 whole entry): as the sequence (Q96SW2 whole entry) above
T5 sequence (Q16531 whole entry partner): as the sequence (Q16531 whole entry partner) above

[9] = molecular target: T6, IKZF1 (Homo sapiens, UniProt Q13422+Q96SW2); experiment: Western-blot assay, substrate protein degradation in hPBMCs: IKZF1; format: cell-based; settings: 24 hours of compound treatment, 50 nM and 500 nM
T6 construct: effects of the compounds of the present disclosure on the expression of target proteins in cells; endogenous in cells; host or cells: human PBMCs (hPBMCs)
T6 sequence (Q13422 whole entry): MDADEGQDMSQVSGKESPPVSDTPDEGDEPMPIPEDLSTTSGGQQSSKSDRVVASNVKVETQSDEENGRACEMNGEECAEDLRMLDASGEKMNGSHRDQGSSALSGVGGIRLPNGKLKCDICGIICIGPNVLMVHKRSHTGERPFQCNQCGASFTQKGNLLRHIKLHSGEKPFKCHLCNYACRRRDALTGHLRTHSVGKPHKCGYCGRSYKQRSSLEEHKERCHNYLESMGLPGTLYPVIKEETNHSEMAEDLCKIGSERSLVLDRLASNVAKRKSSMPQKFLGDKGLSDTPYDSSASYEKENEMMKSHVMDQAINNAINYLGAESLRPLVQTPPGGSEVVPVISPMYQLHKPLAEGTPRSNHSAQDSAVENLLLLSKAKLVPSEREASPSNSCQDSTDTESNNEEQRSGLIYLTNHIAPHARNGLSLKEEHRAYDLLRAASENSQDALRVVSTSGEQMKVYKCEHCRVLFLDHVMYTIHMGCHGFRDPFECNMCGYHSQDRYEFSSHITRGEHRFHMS
T6 sequence (Q96SW2 whole entry): as the sequence (Q96SW2 whole entry) above
T6 sequence (Q16531 whole entry partner): as the sequence (Q16531 whole entry partner) above

[10] = tested on: MV-4-11; experiment: Cell viability assay (CellTiter-Meiluncell Luminescent), tumor cell proliferation, MV-4-11; settings: Homo sapiens, MV4-11, 96 h
Procedure: as §1, §2, §3

O=C1CCN(N2Cc3cc(CNC45CC6CC(CC(O)(C6)C4)C5)ccc3C2=O)C(=O)N1 [GT-07784, 1-(5-((((1r,3s,5R,7S)-3-hydroxyadamantan-1-yl)amino)methyl)-1-oxoisoindolin-2-yl)dihydropyrimidine-2,4(1H,3H)-dione]
inhibition at 0.01 µM [1]: 25 to 30%
inhibition at 0.5 µM [1]: 30 to 40%
substrate protein remaining % WEE1 [2]: B (80%< substrate protein remaining %≤ 100%)
substrate protein remaining % CK1α [3]: B (80%< substrate protein remaining %≤ 100%)
substrate protein remaining % IKZF2 [4]: A (0% ≤ substrate protein remaining % ≤ 80%)
inhibition at 0.01 µM [5]: 20 to 40%
inhibition at 0.5 µM [5]: 20 to 40%
inhibition at 0.01 µM [6]: 18 to 25%
inhibition at 0.5 µM [6]: 25 to 40%
substrate protein remaining % GSPT1 [7]: B (80%< substrate protein remaining %≤ 100%)
substrate protein remaining % IKZF3 [8]: B (80%< substrate protein remaining %≤ 100%)
substrate protein remaining % IKZF1 [9]: B (80%< substrate protein remaining %≤ 100%)

O=C1CCN(N2C(=O)c3ccc(CNC45CC6CC(CC(O)(C6)C4)C5)cc3C2=O)C(=O)N1 [GT-07786, 2-(2,4-dioxotetrahydropyrimidin-1(2H)-yl)-5-((((1r,3s,5R,7S)-3-hydroxyadamantan-1-yl)amino)methyl)isoindoline-1,3-dione]
inhibition at 0.01 µM [1]: 10 to 15%
inhibition at 0.5 µM [1]: 25 to 30%
substrate protein remaining % WEE1 [2]: B (80%< substrate protein remaining %≤ 100%)
substrate protein remaining % CK1α [3]: B (80%< substrate protein remaining %≤ 100%)
substrate protein remaining % IKZF2 [4]: B (80%< substrate protein remaining %≤ 100%)
inhibition at 0.01 µM [5]: 10 to 15%
inhibition at 0.5 µM [5]: 20 to 40%
inhibition at 0.01 µM [6]: 15 to 18%
inhibition at 0.5 µM [6]: 25 to 40%
substrate protein remaining % GSPT1 [7]: A (0% ≤ substrate protein remaining % ≤ 80%)
substrate protein remaining % IKZF3 [8]: B (80%< substrate protein remaining %≤ 100%)
substrate protein remaining % IKZF1 [9]: B (80%< substrate protein remaining %≤ 100%)

O=C1CCN(N2Cc3cc(CN4CCN(c5ncnc6sccc56)CC4)ccc3C2=O)C(=O)N1 [GT-08057, 1-(1-oxo-5-((4-(thieno[2,3-d]pyrimidin-4-yl)piperazin-1-yl)methyl)isoindolin-2-yl)dihydropyrimidine-2,4(1H,3H)-dione]
inhibition at 0.01 µM [1]: 30 to 40%
inhibition at 0.5 µM [1]: 20 to 25%
substrate protein remaining % WEE1 [2]: B (80%< substrate protein remaining %≤ 100%)
substrate protein remaining % CK1α [3]: B (80%< substrate protein remaining %≤ 100%)
substrate protein remaining % IKZF2 [4]: B (80%< substrate protein remaining %≤ 100%)
inhibition at 0.01 µM [5]: 15 to 20%
inhibition at 0.5 µM [5]: 15 to 20%
inhibition at 0.01 µM [6]: 25 to 40%
inhibition at 0.5 µM [6]: 25 to 40%
substrate protein remaining % GSPT1 [7]: A (0% ≤ substrate protein remaining % ≤ 80%)
substrate protein remaining % IKZF3 [8]: B (80%< substrate protein remaining %≤ 100%)
substrate protein remaining % IKZF1 [9]: A (0% ≤ substrate protein remaining % ≤ 80%)

Cc1cc2c(N3CCN(Cc4ccc5c(c4)CN(N4CCC(=O)NC4=O)C5=O)CC3)ncnc2s1 [GT-08059, 1-(5-((4-(6-methylthieno[2,3-d]pyrimidin-4-yl)piperazin-1-yl)methyl)-1-oxoisoindolin-2-yl)dihydropyrimidine-2,4(1H,3H)-dione]
inhibition at 0.01 µM [1]: 30 to 40%
inhibition at 0.5 µM [1]: 15 to 20%
substrate protein remaining % WEE1 [2]: B (80%< substrate protein remaining %≤ 100%)
substrate protein remaining % CK1α [3]: B (80%< substrate protein remaining %≤ 100%)
substrate protein remaining % IKZF2 [4]: B (80%< substrate protein remaining %≤ 100%)
inhibition at 0.01 µM [5]: 20 to 40%
inhibition at 0.5 µM [5]: 5 to 10%
inhibition at 0.01 µM [6]: 25 to 40%
inhibition at 0.5 µM [6]: 25 to 40%
substrate protein remaining % GSPT1 [7]: B (80%< substrate protein remaining %≤ 100%)
substrate protein remaining % IKZF3 [8]: A (0% ≤ substrate protein remaining % ≤ 80%)
substrate protein remaining % IKZF1 [9]: B (80%< substrate protein remaining %≤ 100%)

CC(C)c1cc2c(N3CCN(Cc4ccc5c(c4)CN(N4CCC(=O)NC4=O)C5=O)CC3)ncnc2s1 [GT-08060, 1-(5-((4-(6-isopropylthieno[2,3-d]pyrimidin-4-yl)piperazin-1-yl)methyl)-1-oxoisoindolin-2-yl)dihydropyrimidine-2,4(1H,3H)-dione]
inhibition at 0.01 µM [1]: 20 to 25%
inhibition at 0.5 µM [1]: 30 to 40%
substrate protein remaining % WEE1 [2]: B (80%< substrate protein remaining %≤ 100%)
substrate protein remaining % CK1α [3]: B (80%< substrate protein remaining %≤ 100%)
substrate protein remaining % IKZF2 [4]: A (0% ≤ substrate protein remaining % ≤ 80%)
inhibition at 0.01 µM [5]: 20 to 40%
inhibition at 0.5 µM [5]: 20 to 40%
inhibition at 0.01 µM [6]: 25 to 40%
inhibition at 0.5 µM [6]: 25 to 40%
substrate protein remaining % GSPT1 [7]: B (80%< substrate protein remaining %≤ 100%)
substrate protein remaining % IKZF3 [8]: A (0% ≤ substrate protein remaining % ≤ 80%)
substrate protein remaining % IKZF1 [9]: B (80%< substrate protein remaining %≤ 100%)

Cc1sc2ncnc(N3CCN(Cc4ccc5c(c4)CN(N4CCC(=O)NC4=O)C5=O)CC3)c2c1C [GT-08061, 1-(5-((4-(5,6-dimethylthieno[2,3-d]pyrimidin-4-yl)piperazin-1-yl)methyl)-1-oxoisoindolin-2-yl)dihydropyrimidine-2,4(1H,3H)-dione]
inhibition at 0.01 µM [1]: 10 to 15%
inhibition at 0.5 µM [1]: 25 to 30%
substrate protein remaining % WEE1 [2]: B (80%< substrate protein remaining %≤ 100%)
substrate protein remaining % CK1α [3]: B (80%< substrate protein remaining %≤ 100%)
substrate protein remaining % IKZF2 [4]: A (0% ≤ substrate protein remaining % ≤ 80%)
inhibition at 0.01 µM [6]: 10 to 15%
inhibition at 0.5 µM [6]: 18 to 25%
substrate protein remaining % GSPT1 [7]: B (80%< substrate protein remaining %≤ 100%)
substrate protein remaining % IKZF3 [8]: A (0% ≤ substrate protein remaining % ≤ 80%)
substrate protein remaining % IKZF1 [9]: B (80%< substrate protein remaining %≤ 100%)

Cc1cc2c(C3CCN(Cc4ccc5c(c4)CN(N4CCC(=O)NC4=O)C5=O)CC3)ncnc2s1 [GT-08083, 1-(5-((4-(6-methylthieno[2,3-d]pyrimidin-4-yl)piperidin-1-yl)methyl)-1-oxoisoindolin-2-yl)dihydropyrimidine-2,4(1H,3H)-dione]
inhibition at 0.01 µM [1]: 25 to 30%
inhibition at 0.5 µM [1]: 30 to 40%
substrate protein remaining % WEE1 [2]: B (80%< substrate protein remaining %≤ 100%)
substrate protein remaining % CK1α [3]: A (0% ≤ substrate protein remaining % ≤ 80%)
substrate protein remaining % IKZF2 [4]: B (80%< substrate protein remaining %≤ 100%)
inhibition at 0.01 µM [5]: 20 to 40%
inhibition at 0.5 µM [5]: 20 to 40%
inhibition at 0.01 µM [6]: 25 to 40%
inhibition at 0.5 µM [6]: 25 to 40%
substrate protein remaining % GSPT1 [7]: A (0% ≤ substrate protein remaining % ≤ 80%)
substrate protein remaining % IKZF3 [8]: B (80%< substrate protein remaining %≤ 100%)
substrate protein remaining % IKZF1 [9]: B (80%< substrate protein remaining %≤ 100%)

O=C1CCN(N2Cc3cc(CN4CCC(c5ncnc6scc(-c7ccccc7)c56)CC4)ccc3C2=O)C(=O)N1 [GT-08086, 1-(1-oxo-5-((4-(5-phenylthieno[2,3-d]pyrimidin-4-yl)piperidin-1-yl)methyl)isoindolin-2-yl)dihydropyrimidine-2,4(1H,3H)-dione]
inhibition at 0.01 µM [1]: 20 to 25%
inhibition at 0.5 µM [1]: 20 to 25%
inhibition at 0.01 µM [5]: 20 to 40%
inhibition at 0.5 µM [5]: 20 to 40%
inhibition at 0.01 µM [6]: 25 to 40%
inhibition at 0.5 µM [6]: 25 to 40%

CC(C)c1cc2c(N3CCN(Cc4ccc5c(c4)C(=O)N(N4CCC(=O)NC4=O)C5=O)CC3)ncnc2s1 [GT-08093, 2-(2,4-dioxotetrahydropyrimidin-1(2H)-yl)-5-((4-(6-isopropylthieno[2,3-d]pyrimidin-4-yl)piperazin-1-yl)methyl)isoindoline-1,3-dione]
inhibition at 0.01 µM [1]: 20 to 25%
inhibition at 0.5 µM [1]: 20 to 25%
substrate protein remaining % WEE1 [2]: A (0% ≤ substrate protein remaining % ≤ 80%)
substrate protein remaining % CK1α [3]: A (0% ≤ substrate protein remaining % ≤ 80%)
substrate protein remaining % IKZF2 [4]: B (80%< substrate protein remaining %≤ 100%)
inhibition at 0.01 µM [5]: 15 to 20%
inhibition at 0.5 µM [5]: 15 to 20%
substrate protein remaining % GSPT1 [7]: A (0% ≤ substrate protein remaining % ≤ 80%)
substrate protein remaining % IKZF3 [8]: B (80%< substrate protein remaining %≤ 100%)
inhibition at 0.01 µM ([10]; read-out: Inhibition Rate at 10 nM (%)): 40 to 60%
inhibition at 0.5 µM ([10]; read-out: Inhibition Rate at 500 nM (%)): 60 to 80%
substrate protein remaining % IKZF1 [9]: B (80%< substrate protein remaining %≤ 100%)
